According to ChEMBL document CHEMBL4823249, “Discovery of a Pyrimidinedione Derivative as a Potent and Orally Bioavailable Axl Inhibitor” (J Med Chem, 2021):
Active and inactive are the calls of the source. The calls are words filed in the database; no cut-off is given here.

How the values were obtained:
[1] = AUC(0 to t) in Sprague-Dawley rat at 3 mg/kg, po measured upto 24 hrs by LC-MS analysis; format: ADME, organism-based; design: route oral, dose 3 mg/kg, time <=24; settings: in vivo
[2] = Tmax in Sprague-Dawley rat at 3 mg/kg, po measured upto 24 hrs by LC-MS analysis; format: ADME, organism-based; settings: in vivo
[3] = Cmax in Sprague-Dawley rat at 3 mg/kg, po measured upto 24 hrs by LC-MS analysis; format: ADME, organism-based; design: route oral, dose 3 mg/kg, time <=24; settings: in vivo
[4] = AUC(0 to infinity) in ICR mouse at 3 mg/kg, po measured upto 24 hrs by LC-MS analysis; format: ADME, organism-based; design: route oral, dose 3 mg/kg, time <=24; settings: in vivo
[5] = Oral availability in ICR mouse at 3 mg/kg measured upto 24 hrs by LC-MS analysis; format: ADME, organism-based; settings: in vivo
[6] = molecular target: Vascular endothelial growth factor receptor 1 (Homo sapiens, UniProt P17948); assay: Inhibition of recombinant human FLT1 (783 to end residues) using KKKSPGEYVNIEFG as substrate incubated for 40 mins in presence of [gamma-33ATP] by scintillation counting based radiometry assay
Sequence of Vascular endothelial growth factor receptor 1 (P17948 whole entry): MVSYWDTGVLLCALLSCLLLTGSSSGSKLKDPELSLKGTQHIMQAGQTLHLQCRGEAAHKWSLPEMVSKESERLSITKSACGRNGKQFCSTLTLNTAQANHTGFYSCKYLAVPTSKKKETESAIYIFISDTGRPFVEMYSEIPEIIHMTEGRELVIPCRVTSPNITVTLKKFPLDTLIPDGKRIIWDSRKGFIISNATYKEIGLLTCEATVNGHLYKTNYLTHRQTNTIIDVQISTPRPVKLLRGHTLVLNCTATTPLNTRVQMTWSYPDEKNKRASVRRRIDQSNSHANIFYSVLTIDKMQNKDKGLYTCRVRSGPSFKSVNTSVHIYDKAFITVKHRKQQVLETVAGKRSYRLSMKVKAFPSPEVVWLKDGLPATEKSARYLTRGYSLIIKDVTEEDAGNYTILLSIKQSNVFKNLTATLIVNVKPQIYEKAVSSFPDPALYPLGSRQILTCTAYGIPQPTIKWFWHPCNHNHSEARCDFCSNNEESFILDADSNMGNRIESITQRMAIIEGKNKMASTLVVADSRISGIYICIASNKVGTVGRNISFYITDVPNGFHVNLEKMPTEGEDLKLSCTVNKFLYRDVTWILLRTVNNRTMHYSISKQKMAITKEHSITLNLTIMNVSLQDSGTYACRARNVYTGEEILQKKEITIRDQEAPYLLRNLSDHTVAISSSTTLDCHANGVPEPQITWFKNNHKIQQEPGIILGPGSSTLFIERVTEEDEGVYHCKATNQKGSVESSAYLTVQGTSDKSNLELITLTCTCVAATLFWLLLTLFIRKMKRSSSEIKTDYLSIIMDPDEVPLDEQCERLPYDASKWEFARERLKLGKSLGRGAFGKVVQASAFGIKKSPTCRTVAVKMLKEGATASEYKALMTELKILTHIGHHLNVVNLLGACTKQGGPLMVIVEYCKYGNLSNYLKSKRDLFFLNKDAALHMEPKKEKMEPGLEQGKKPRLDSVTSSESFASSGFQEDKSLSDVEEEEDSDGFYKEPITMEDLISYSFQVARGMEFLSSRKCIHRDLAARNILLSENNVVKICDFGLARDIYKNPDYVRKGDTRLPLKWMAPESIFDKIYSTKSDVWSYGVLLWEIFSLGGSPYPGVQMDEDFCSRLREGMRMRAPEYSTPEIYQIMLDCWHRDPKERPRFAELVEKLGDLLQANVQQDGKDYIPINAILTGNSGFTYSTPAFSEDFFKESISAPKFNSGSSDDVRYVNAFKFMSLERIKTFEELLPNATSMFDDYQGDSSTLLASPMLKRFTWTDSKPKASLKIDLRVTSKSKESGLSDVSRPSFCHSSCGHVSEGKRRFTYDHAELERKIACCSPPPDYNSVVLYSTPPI

[7] = molecular target: Vascular endothelial growth factor receptor 2 (Homo sapiens, UniProt P35968); assay: Inhibition of recombinant human KDR (790 to end residues) using myelin basic protein as substrate incubated for 40 mins by [gamma-33P]-ATP scintillation counting based radiometry assay
[8] = molecular target: Platelet-derived growth factor receptor alpha (Homo sapiens, UniProt P16234); assay: Inhibition of human PDGFRalpha (550 to end residues) using poly(Glu, Tyr) 4:1 as substrate measured after 40 mins in presence of [gamma33P]ATP by scintillation counting based radiometry assay
[9] = molecular target: Proto-oncogene tyrosine-protein kinase Src (Homo sapiens, UniProt P12931); assay: Inhibition of recombinant human C-Src using KVEKIGEGTYGVVYK as substrate incubated 40 mins in presence of [gamma-33ATP] by scintillation counting based radiometry assay
Sequence of Proto-oncogene tyrosine-protein kinase Src (P12931 2-536 limits assumed): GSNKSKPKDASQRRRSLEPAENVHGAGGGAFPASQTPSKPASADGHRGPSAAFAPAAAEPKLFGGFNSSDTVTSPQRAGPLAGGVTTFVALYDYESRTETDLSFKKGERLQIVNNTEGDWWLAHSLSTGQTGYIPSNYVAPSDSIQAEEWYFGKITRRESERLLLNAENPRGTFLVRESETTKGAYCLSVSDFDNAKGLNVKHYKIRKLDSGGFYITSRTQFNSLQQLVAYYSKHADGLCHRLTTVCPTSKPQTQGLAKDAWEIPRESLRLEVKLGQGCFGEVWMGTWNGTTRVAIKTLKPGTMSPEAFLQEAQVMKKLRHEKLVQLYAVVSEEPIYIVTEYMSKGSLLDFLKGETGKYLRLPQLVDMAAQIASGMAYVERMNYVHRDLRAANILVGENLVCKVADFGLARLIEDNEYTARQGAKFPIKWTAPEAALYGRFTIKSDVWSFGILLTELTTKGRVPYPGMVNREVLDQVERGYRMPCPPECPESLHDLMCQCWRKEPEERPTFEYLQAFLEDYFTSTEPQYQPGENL

[10] = molecular target: Tyrosine-protein kinase ABL1 (Homo sapiens, UniProt P00519); assay: Inhibition of human recombinant ABL (27 to end residues) using EAIYAAPFAKKK as substrate incubated for 40 mins in presence of [gamma33P-ATP] by radiometric scintillation counting analysis
Sequence of Tyrosine-protein kinase ABL1 (P00519 whole entry, the tested form may be a part): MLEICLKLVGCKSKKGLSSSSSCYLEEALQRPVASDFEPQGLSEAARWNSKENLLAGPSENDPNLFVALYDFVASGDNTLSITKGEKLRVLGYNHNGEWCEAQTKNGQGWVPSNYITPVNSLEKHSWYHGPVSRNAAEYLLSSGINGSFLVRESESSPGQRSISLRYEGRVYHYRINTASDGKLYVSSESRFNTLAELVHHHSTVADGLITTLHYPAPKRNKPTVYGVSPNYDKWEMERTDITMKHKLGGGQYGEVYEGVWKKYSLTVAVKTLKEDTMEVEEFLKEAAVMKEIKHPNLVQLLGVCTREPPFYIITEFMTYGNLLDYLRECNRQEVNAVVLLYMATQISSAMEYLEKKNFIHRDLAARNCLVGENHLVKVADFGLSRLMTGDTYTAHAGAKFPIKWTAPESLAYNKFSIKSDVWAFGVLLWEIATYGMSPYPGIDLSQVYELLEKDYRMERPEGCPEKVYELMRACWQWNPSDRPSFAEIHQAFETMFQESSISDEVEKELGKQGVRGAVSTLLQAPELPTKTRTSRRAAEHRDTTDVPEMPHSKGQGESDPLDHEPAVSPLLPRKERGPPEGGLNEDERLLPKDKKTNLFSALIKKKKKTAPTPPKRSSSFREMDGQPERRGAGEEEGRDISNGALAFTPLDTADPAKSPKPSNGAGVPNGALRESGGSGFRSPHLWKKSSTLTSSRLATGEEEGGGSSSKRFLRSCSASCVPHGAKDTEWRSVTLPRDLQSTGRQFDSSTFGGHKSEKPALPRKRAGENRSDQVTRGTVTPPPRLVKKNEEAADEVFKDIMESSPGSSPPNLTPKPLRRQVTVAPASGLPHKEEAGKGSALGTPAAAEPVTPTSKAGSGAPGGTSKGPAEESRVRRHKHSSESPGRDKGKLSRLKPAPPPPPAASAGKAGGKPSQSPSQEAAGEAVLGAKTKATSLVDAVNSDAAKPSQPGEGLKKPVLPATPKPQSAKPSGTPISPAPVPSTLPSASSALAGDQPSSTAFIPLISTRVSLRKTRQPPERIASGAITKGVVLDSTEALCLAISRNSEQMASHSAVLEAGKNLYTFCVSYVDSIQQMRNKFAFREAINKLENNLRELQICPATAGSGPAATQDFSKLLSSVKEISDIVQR

Focal adhesion kinase 1 = Focal adhesion kinase 1 (Homo sapiens, UniProt Q05397); assay: Inhibition of human recombinant FAK1 (411 to 686 residues) using EEEEYEEEEEEYY as substrate incubated for 40 mins in presence of [gamma-33ATP] by radiometric scintillation counting analysis
Sequence of Focal adhesion kinase 1 (Q05397 whole entry, the tested form may be a part): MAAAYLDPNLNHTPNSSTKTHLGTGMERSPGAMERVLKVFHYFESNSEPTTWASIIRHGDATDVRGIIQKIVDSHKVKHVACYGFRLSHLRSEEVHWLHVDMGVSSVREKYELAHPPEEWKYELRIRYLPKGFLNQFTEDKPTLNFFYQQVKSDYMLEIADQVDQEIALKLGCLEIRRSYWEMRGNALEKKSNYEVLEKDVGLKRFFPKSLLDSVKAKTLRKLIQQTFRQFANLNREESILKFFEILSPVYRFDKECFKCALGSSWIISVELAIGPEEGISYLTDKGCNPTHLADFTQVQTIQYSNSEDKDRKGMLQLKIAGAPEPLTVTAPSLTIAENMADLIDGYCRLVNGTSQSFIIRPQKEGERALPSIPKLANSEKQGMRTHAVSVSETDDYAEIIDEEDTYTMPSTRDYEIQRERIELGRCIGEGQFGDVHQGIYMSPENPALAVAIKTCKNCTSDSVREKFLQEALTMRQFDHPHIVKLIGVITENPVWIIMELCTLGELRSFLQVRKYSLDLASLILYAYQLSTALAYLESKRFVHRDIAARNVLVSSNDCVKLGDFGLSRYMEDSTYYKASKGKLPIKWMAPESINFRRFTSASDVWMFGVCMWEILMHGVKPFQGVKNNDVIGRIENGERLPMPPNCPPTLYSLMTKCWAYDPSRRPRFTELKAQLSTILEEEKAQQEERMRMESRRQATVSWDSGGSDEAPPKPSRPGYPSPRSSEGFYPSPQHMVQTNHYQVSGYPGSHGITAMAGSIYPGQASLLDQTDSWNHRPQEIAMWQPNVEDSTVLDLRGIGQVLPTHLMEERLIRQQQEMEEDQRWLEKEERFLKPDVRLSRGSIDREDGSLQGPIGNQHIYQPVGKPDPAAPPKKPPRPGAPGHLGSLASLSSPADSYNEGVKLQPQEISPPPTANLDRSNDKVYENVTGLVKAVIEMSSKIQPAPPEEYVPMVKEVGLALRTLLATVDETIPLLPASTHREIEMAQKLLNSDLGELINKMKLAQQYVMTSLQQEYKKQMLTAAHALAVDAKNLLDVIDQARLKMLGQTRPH

[11] = molecular target: Mitogen-activated protein kinase 1 (Homo sapiens, UniProt P28482); assay: Inhibition of human full length recombinant ERK2 using myelin basic protein as substrate incubated for 40 mins in presence of [gamma33P-ATP] by radiometric scintillation counting analysis
Sequence of Mitogen-activated protein kinase 1 (P28482 whole entry): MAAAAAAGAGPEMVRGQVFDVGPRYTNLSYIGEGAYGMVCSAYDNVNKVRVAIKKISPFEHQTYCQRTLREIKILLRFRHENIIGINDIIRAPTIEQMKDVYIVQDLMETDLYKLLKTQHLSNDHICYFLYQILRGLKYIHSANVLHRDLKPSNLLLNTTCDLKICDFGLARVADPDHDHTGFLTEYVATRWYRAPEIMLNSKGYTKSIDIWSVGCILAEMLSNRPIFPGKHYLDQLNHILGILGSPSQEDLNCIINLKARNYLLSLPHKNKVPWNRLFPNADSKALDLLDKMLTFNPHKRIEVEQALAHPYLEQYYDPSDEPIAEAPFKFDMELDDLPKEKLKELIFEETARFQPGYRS

[12] = molecular target: Serine/threonine-protein kinase mTOR (Homo sapiens, UniProt P42345); assay: Inhibition of full length recombinant human mTOR incubated for 40 mins in presence of [gamma-33ATP] by scintillation counting based radiometry assay
[13] = molecular target: Tyrosine-protein kinase SYK (Homo sapiens, UniProt P43405); assay: Inhibition of recombinant human full length SYK using poly(Glu, Tyr) 4:1 as substrate incubated for 40 mins in presence of [gamma33P]ATP by scintillation counting based radiometry assay
[14] = molecular target: Mitogen-activated protein kinase kinase kinase 20 (Homo sapiens, UniProt Q9NYL2); assay: Inhibition of recombinant full-length human ZAK using MBP as substrate incubated for 40 mins in presence of [gamma33P]ATP by scintillation counting based radiometry assay
CDK6/cyclin D3 = CDK6/cyclin D3 (Homo sapiens, UniProt Q00534); assay: Inhibition of recombinant full length human CDK6/CyclinD3C using Rb fragment as substrate incubated for 40 mins in presence of [gamma-33ATP] by scintillation counting based radiometry assay; format: protein-complex assay
Sequence of CDK6/cyclin D3 (P30281 whole entry, the tested form may be a part): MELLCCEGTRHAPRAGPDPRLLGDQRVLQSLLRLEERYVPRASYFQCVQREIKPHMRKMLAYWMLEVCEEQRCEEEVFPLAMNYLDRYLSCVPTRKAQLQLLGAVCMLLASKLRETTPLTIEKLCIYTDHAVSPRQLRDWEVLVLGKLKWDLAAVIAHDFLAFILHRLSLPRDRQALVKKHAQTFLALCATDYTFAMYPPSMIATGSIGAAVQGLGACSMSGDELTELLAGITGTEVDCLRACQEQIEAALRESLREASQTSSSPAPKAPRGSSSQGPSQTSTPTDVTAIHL
Sequence of CDK6/cyclin D3 (Q00534 whole entry, the tested form may be a part): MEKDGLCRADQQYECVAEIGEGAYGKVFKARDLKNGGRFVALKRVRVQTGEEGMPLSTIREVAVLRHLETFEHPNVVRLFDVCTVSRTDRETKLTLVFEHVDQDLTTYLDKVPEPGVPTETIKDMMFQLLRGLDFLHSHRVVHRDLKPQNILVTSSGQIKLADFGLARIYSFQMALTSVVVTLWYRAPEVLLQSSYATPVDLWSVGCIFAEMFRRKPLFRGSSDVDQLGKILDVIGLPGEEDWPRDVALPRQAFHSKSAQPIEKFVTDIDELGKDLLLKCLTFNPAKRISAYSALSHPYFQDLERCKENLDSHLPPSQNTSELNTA

[15] = molecular target: T1, Tyrosine-protein kinase receptor UFO (Mus musculus) (UniProt Q00993); assay: Inhibition of AXL in mouse BaF3/TEL-AXL cells assessed as reduction in phosphorylation of AKT at 1 to 15 nM after 2 hrs by Western blotting analysis; format: cell-based; settings: dose 1-15 nM
T1 sequence (whole entry): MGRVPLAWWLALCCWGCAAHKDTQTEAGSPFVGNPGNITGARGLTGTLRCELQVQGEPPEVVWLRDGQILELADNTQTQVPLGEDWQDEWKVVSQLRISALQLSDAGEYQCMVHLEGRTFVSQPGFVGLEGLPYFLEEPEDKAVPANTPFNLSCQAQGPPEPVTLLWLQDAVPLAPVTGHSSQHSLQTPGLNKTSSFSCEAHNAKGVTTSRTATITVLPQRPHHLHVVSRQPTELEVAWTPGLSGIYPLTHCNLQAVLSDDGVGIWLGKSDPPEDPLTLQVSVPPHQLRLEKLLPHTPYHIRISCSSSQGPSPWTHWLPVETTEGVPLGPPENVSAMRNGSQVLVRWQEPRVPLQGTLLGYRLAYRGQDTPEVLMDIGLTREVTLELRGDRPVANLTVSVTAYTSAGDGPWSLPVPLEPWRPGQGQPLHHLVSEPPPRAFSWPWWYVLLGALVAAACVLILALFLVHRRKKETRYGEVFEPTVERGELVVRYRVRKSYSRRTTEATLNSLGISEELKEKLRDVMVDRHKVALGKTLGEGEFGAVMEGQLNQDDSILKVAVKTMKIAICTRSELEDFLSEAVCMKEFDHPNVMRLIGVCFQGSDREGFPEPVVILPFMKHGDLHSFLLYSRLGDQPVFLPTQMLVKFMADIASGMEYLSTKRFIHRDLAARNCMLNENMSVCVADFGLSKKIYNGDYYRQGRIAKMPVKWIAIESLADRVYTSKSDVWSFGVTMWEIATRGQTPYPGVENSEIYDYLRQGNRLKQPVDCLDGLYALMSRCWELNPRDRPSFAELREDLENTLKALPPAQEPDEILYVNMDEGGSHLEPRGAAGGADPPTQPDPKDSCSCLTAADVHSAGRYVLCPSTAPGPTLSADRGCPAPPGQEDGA

BT-474 = assay: Antiproliferative activity against human BT-474 cells incubated for 72 hrs by SRB or CCK8 assay; format: functional, cell-based; settings: BT-474, 72 h
RT-112 = assay: Antiproliferative activity against human RT-112 cells incubated for 72 hrs by SRB or CCK8 assay; format: functional, cell-based; settings: RT-112, 72 h
SNU-449 = assay: Inhibition of Gas6-stimulated cell invasion in human SNU-449 cells at […] after 24 hrs by crystal violet staining based microscopic analysis; format: functional; settings: dose lower 5.0 µM
BaF3 [16] = assay: Antitumor activity against mouse BaF3/TEL-AXL cells xenografted in BALB/c nude mouse assessed as tumor growth inhibition at 5 mg/kg, po administered once daily for 14 days by caliper method; format: functional; settings: 336 h, time 14 day, read-out: TGI
BaF3 [17] = assay: Antitumor activity against mouse BaF3/TEL-AXL cells xenografted in BALB/c nude mouse assessed as tumor growth inhibition at 25 mg/kg, po administered once daily for 14 days by caliper method; format: functional; settings: 336 h, time 14 day, read-out: TGI
U-87 MG = assay: Antitumor activity against human U-87MG cells xenografted in po dosed BALB/c nude mouse assessed as tumor growth inhibition administered once daily for 14 days by caliper method; format: functional, organism-based; settings: U-87MG ATCC, dose 5-100 mg/kg, time 14.0 day

**Q.** Which results are given for `CC(C)n1cc(C(=O)Nc2ccc(Oc3ccnc(NC(=O)C4CC4)c3)c(F)c2)c(=O)n(-c2ccc(F)cc2)c1=O`?
**A.** AUC(0-t) at 24 h [1]: 32600 ng·h/mL; Tmax [2]: 1.17 h; Cmax [3]: 4560 ng/mL; AUC(0-inf) [4]: 25100 ng·h/mL; bioavailability [5]: 114%; IC50 [6]: > 1000 nM; IC50 [7]: > 1000 nM; IC50 [8]: > 1000 nM; IC50 [9]: > 1000 nM; IC50 [10]: > 1000 nM; IC50 (Focal adhesion kinase 1): > 1000 nM; IC50 [11]: > 1000 nM; IC50 [12]: > 1000 nM; IC50 [13]: > 100 nM; IC50 [14]: > 100 nM; IC50 (CDK6/cyclin D3): > 1000 nM; inhibition [15]: Active; IC50 (BT-474): > 10000 nM; IC50 (RT-112): > 10000 nM; inhibition (SNU-449): Active; inhibition in vivo at 5 mg/kg (BaF3 [16]): 106%; inhibition in vivo at 25 mg/kg (BaF3 [17]): 106%; Activity (U-87 MG): Dose-Dependent Effect
